Experimental data published in patent US20200270309A1, “MALEIMIDE GROUP-MODIFIED ANGIOGENESIS INHIBITOR HM-1 AND USE THEREOF” (NANJING ANJI BIOLOGICAL TECHNOLOGY CO., LTD, priority 2017, published 2020).
Like-named read-outs stand apart in the source and are kept apart here. Peptide text beside a SMILES is read from it. * marks the point of attachment. Mal(CH2CH2O)6CH2CH2CO = O=C1C=CC(=O)N1CCOCCOCCOCCOCCOCCOCCC(=O)*; Hexanoyl(6-maleimido) = O=C1C=CC(=O)N1CCCCCC(=O)*; X7 = O=C1C=CC(=O)N1CCOCCOCCOCCOCCOCCOCCCCCCC(=O)*; Propanoyl(3-maleimido) = O=C1C=CC(=O)N1CCC(=O)*; X29 = O=C1C=CC(=O)N1CCOCCOCCOCCOCCOCCOCCCC(=O)*; X26 = O=C1C=CC(=O)N1CCOCCOCCOCCOCCOCCCCC(=O)*; X19 = O=C1C=CC(=O)N1CCOCCOCCOCCOCCOCC(=O)*; X37 = O=C1C=CC(=O)N1c1ccc(CCCCCC(=O)*)cc1; Maleimidoacetyl = O=C1C=CC(=O)N1CC(=O)*; X17 = O=C1C=CC(=O)N1CCOCCOCCCCCCCC(=O)*; X2 = O=C1C=CC(=O)N1CCOCCOCCCCCC(=O)*; X82 = O=C1C=CC(=O)N1CCCCCCCCC(=O)*; X42 = O=C1C=CC(=O)N1CCOCCC(=O)*

Test: Half-lives and pharmacokinetic parameters of polypeptides vs HM-1
Parameters: AUC0-∞: concentration or dose not given beside the values
Settings: in vivo
[1] = read-out: T1/2β (half-life) (converted)

| SMILES | AUC0-∞ [mg/L/h] | half-life [1] [h] | AUC(0-inf) [ng·h/mL] | MRT inf [h] | clearance [mL/min/kg] | half-life (T1/2β (half-life)) [h] | AUC(0-inf) (read-out: AUC0-∞) [ng·h/mL] | clearance (read-out: CL (converted)) [mL/min/kg] | MRT inf (read-out: MRT0-∞) [h] |
| --- | --- | --- | --- | --- | --- | --- | --- | --- | --- |
| CSCC[C@H](NC(=O)[C@H](Cc1c[nH]cn1)NC(=O)[C@H](CCC(N)=O)NC(=O)[C@H](CCCNC(=N)N)NC(=O)CCN1C(=O)C=CC1=O)C(=O)N[C@@H](Cc1ccccc1)C(=O)N[C@@H](CO)C(=O)N[C@@H](Cc1c[nH]c2ccccc12)C(=O)N[C@H](C(=O)N[C@@H](CC(C)C)C(=O)N[C@@H](C)C(=O)N[C@@H](CCCNC(=N)N)C(=O)N[C@@H](CC(N)=O)C(=O)N[C@@H](CC(=O)O)C(=O)N[C@@H](CCC(N)=O)C(=O)N[C@@H](CCC(=O)O)C(=O)N[C@@H](CCC(=O)O)C(=O)N[C@@H](CCCNC(=N)N)C(=O)NCC(=O)N[C@@H](CC(=O)O)C(=O)O)C(C)C [P1] ({Propanoyl(3-maleimido)}-RQHMFSWVLARNDQEERGD-OH; C-terminus assumed) | 0.0336 ± 0.0083 | 36.96 ± 0.25 | – | – | – | – | – | – | – |
| C[C@H](NC(=O)CNC(=O)[C@H](CCCNC(=N)N)NC(=O)CCCCCc1ccc(N2C(=O)C=CC2=O)cc1)C(=O)N[C@@H](CC(=O)O)C(=O)N[C@@H](CCCNC(=N)N)C(=O)N[C@@H](C)C(=O)NCC(=O)NCC(=O)NCC(=O)NCC(=O)N[C@@H](CCCNC(=N)N)C(=O)NCC(=O)N[C@@H](CC(=O)O)C(=O)O [X41] (X37-RGADRAGGGGRGD-OH) | – | – | 26500 ± 7810 | 47.5 ± 13.9 | 0.628 | 32.9 ± 0.36 | – | – | – |
| C[C@H](NC(=O)CNC(=O)[C@H](CCCNC(=N)N)NC(=O)CCCCCCCCN1C(=O)C=CC1=O)C(=O)N[C@@H](CC(=O)O)C(=O)N[C@@H](CCCNC(=N)N)C(=O)N[C@@H](C)C(=O)NCC(=O)NCC(=O)NCC(=O)NCC(=O)N[C@@H](CCCNC(=N)N)C(=O)NCC(=O)N[C@@H](CC(=O)O)C(=O)O [X8] (X82-RGADRAGGGGRGD-OH) | – | – | 27900 ± 7570 | 50 ± 12.6 | 0.597 | 34.68 ± 0.31 | – | – | – |
| C[C@H](NC(=O)CNC(=O)[C@H](CCCNC(=N)N)NC(=O)CCCCCN1C(=O)C=CC1=O)C(=O)N[C@@H](CC(=O)O)C(=O)N[C@@H](CCCNC(=N)N)C(=O)N[C@@H](C)C(=O)NCC(=O)N[C@@H](CO)C(=O)N[C@@H](CO)C(=O)N[C@@H](CO)C(=O)N[C@@H](CO)C(=O)N[C@@H](CCCNC(=N)N)C(=O)NCC(=O)N[C@@H](CC(=O)O)C(=O)O [P14] ({Hexanoyl(6-maleimido)}-RGADRAGSSSSRGD-OH; C-terminus assumed) | – | 39.85 ± 0.31 | – | – | – | – | 32200 ± 7560 | 0.518 | 57.5 ± 9.63 |
| C[C@H](NC(=O)[C@H](CCCNC(=N)N)NC(=O)[C@H](CC(=O)O)NC(=O)CNC(=O)[C@H](CCCNC(=N)N)NC(=O)CCN1C(=O)C=CC1=O)C(=O)NCC(=O)NCC(=O)NCC(=O)NCC(=O)N[C@@H](CCCNC(=N)N)C(=O)NCC(=O)N[C@@H](CC(=O)O)C(=O)O [P7] ({Propanoyl(3-maleimido)}-RGDRAGGGGRGD-OH; C-terminus assumed) | – | 39.63 ± 0.28 | – | – | – | – | 32000 ± 7820 | 0.522 | 57.2 ± 13.9 |
| C[C@H](NC(=O)CNC(=O)[C@H](CCCNC(=N)N)NC(=O)CN1C(=O)C=CC1=O)C(=O)N[C@@H](CC(=O)O)C(=O)N[C@@H](CCCNC(=N)N)C(=O)N[C@@H](C)C(=O)NCC(=O)NCC(=O)NCC(=O)NCC(=O)N[C@@H](CCCNC(=N)N)C(=O)NCC(=O)N[C@@H](CC(=O)O)C(=O)O [X1] (Maleimidoacetyl-RGADRAGGGGRGD-OH) | – | 35.99 ± 0.29 | – | – | – | – | 29000 ± 6940 | 0.575 | 51.9 ± 10.2 |

Other lines, results leading:

| AUC0-∞ [mg/L/h] | half-life [1] [h] | AUC(0-inf) [ng·h/mL] | MRT inf [h] | clearance [mL/min/kg] | half-life (T1/2β (half-life)) [h] | AUC(0-inf) (read-out: AUC0-∞) [ng·h/mL] | clearance (read-out: CL (converted)) [mL/min/kg] | MRT inf (read-out: MRT0-∞) [h] | SMILES |
| --- | --- | --- | --- | --- | --- | --- | --- | --- | --- |
| – | – | 25800 ± 8050 | 46.2 ± 10.2 | 0.645 | 32.03 ± 0.31 | – | – | – | C[C@H](NC(=O)CNC(=O)[C@H](CCCNC(=N)N)NC(=O)CCCOCCOCCOCCOCCOCCOCCN1C(=O)C=CC1=O)C(=O)N[C@@H](CC(=O)O)C(=O)N[C@@H](CCCNC(=N)N)C(=O)N[C@@H](C)C(=O)NCC(=O)NCC(=O)NCC(=O)NCC(=O)N[C@@H](CCCNC(=N)N)C(=O)NCC(=O)N[C@@H](CC(=O)O)C(=O)O [X86] (X29-RGADRAGGGGRGD-OH) |
| – | – | 33100 ± 8520 | 59.1 ± 10.4 | 0.505 | 40.97 ± 0.26 | – | – | – | C[C@H](NC(=O)CNC(=O)[C@H](CCCNC(=N)N)NC(=O)CCOCCOCCOCCOCCOCCOCCN1C(=O)C=CC1=O)C(=O)N[C@@H](CC(=O)O)C(=O)N[C@@H](CCCNC(=N)N)C(=O)N[C@@H](C)C(=O)NCC(=O)NCC(=O)NCC(=O)NCC(=O)N[C@@H](CCCNC(=N)N)C(=O)NCC(=O)N[C@@H](CC(=O)O)C(=O)O [X85] ({Mal(CH2CH2O)6CH2CH2CO}-RGADRAGGGGRGD-OH) |
| – | – | 34600 ± 8180 | 61.9 ± 9.54 | 0.482 | 42.91 ± 0.25 | – | – | – | C[C@H](NC(=O)CNC(=O)[C@H](CCCNC(=N)N)NC(=O)COCCOCCOCCOCCOCCN1C(=O)C=CC1=O)C(=O)N[C@@H](CC(=O)O)C(=O)N[C@@H](CCCNC(=N)N)C(=O)N[C@@H](C)C(=O)NCC(=O)NCC(=O)NCC(=O)NCC(=O)N[C@@H](CCCNC(=N)N)C(=O)NCC(=O)N[C@@H](CC(=O)O)C(=O)O [X77] (X19-RGADRAGGGGRGD-OH) |
| – | 33.33 ± 0.25 | – | – | – | – | 26900 ± 7090 | 0.62 | 48.1 ± 14.2 | C[C@H](NC(=O)CNC(=O)[C@H](CCCNC(=N)N)NC(=O)CCOCCN1C(=O)C=CC1=O)C(=O)N[C@@H](CC(=O)O)C(=O)N[C@@H](CCCNC(=N)N)C(=O)N[C@@H](C)C(=O)NCC(=O)NCC(=O)NCC(=O)NCC(=O)N[C@@H](CCCNC(=N)N)C(=O)NCC(=O)N[C@@H](CC(=O)O)C(=O)O [X50] (X42-RGADRAGGGGRGD-OH) |
| – | – | 33100 ± 7150 | 59.1 ± 11.8 | 0.505 | 40.95 ± 0.27 | – | – | – | C[C@H](NC(=O)CNC(=O)[C@H](CCCNC(=N)N)NC(=O)CCCCCCOCCOCCOCCOCCOCCOCCN1C(=O)C=CC1=O)C(=O)N[C@@H](CC(=O)O)C(=O)N[C@@H](CCCNC(=N)N)C(=O)N[C@@H](C)C(=O)NCC(=O)NCC(=O)NCC(=O)NCC(=O)N[C@@H](CCCNC(=N)N)C(=O)NCC(=O)N[C@@H](CC(=O)O)C(=O)O [X89] (X7-RGADRAGGGGRGD-OH) |
| – | – | 26700 ± 8160 | 47.8 ± 12.3 | 0.625 | 33.09 ± 0.28 | – | – | – | C[C@H](NC(=O)CNC(=O)[C@H](CCCNC(=N)N)NC(=O)CCCCCCCOCCOCCN1C(=O)C=CC1=O)C(=O)N[C@@H](CC(=O)O)C(=O)N[C@@H](CCCNC(=N)N)C(=O)N[C@@H](C)C(=O)NCC(=O)NCC(=O)NCC(=O)NCC(=O)N[C@@H](CCCNC(=N)N)C(=O)NCC(=O)N[C@@H](CC(=O)O)C(=O)O [X62] (X17-RGADRAGGGGRGD-OH) |
| – | – | 34500 ± 7330 | 61.6 ± 11.7 | 0.483 | 42.72 ± 0.25 | – | – | – | C[C@H](NC(=O)CNC(=O)[C@H](CCCNC(=N)N)NC(=O)CCCCOCCOCCOCCOCCOCCN1C(=O)C=CC1=O)C(=O)N[C@@H](CC(=O)O)C(=O)N[C@@H](CCCNC(=N)N)C(=O)N[C@@H](C)C(=O)NCC(=O)NCC(=O)NCC(=O)NCC(=O)N[C@@H](CCCNC(=N)N)C(=O)NCC(=O)N[C@@H](CC(=O)O)C(=O)O [X80] (X26-RGADRAGGGGRGD-OH) |
| – | – | 30200 ± 7290 | 54.1 ± 11.7 | 0.552 | 37.51 ± 0.25 | – | – | – | C[C@H](NC(=O)CNC(=O)[C@H](CCCNC(=N)N)NC(=O)CCCCCOCCOCCN1C(=O)C=CC1=O)C(=O)N[C@@H](CC(=O)O)C(=O)N[C@@H](CCCNC(=N)N)C(=O)N[C@@H](C)C(=O)NCC(=O)NCC(=O)NCC(=O)NCC(=O)N[C@@H](CCCNC(=N)N)C(=O)NCC(=O)N[C@@H](CC(=O)O)C(=O)O [X60] (X2-RGADRAGGGGRGD-OH) |
